Laboratory results: patent US20100015249A1, “Antitumor agent containing 6'-amidino-2'-naphthyl 4-guanidinobenzoate or salt thereof” (priority 2005, published 2010)

Experiments:
[1] = test system: human pancreas cancer cell line MDAPanc-28; test: Apoptosis ratio by flow cytometry (propidium iodide, FACScan); type: cell-based; conditions: for apoptosis induction in combination with gemcitabine: MDAPanc-28, pretreatment with the agent 3 hours then gemcitabine 48 hours, compared with gemcitabine alone
Protocol: The present inventors next examined the effect of these agents on apoptosis induction in the human pancreas cancer cell line MDAPanc-28. […] Flow cytometry was used to confirm the occurrence of apoptosis. Cells were collected after treatments with the agents and fixed in 70% ethanol at −20° C. for 24 hours. After rinsing with PBS, cells were suspended in PBS containing 50 μg/ml of propium iodide, 0.1% Triton X-100, 0.1% sodium citrate and 1 μg/ml of DNase free RNase. The samples were incubated at room temperature for 30 minutes and the amount of DNA was measured by using FACScan.

[2] = test system: human pancreas cancer cell line Panc-1; test: Subcutaneous Panc-1 transplant in nude mice: tumor volume and weight; type: in vivo; conditions: Panc-1 s.c., 6 weeks treatment, gemcitabine 100 mg/kg once a week i.p., FUT-175 30 mg/kg three times a week i.p.
Protocol: (§1) Tumor volume, the body weight and extirpated tumor weight were measured and pictures were taken for each group of mice.

[3] = Body weight of Panc-1 transplanted nude mice after treatment; type: in vivo; conditions: Panc-1 s.c., 6 weeks treatment, gemcitabine 100 mg/kg once a week i.p., FUT-175 30 mg/kg three times a week i.p.
Protocol: as §1

[4] = test system: human pancreas cancer cell line MDAPanc-28; test: MTT assay of cell survival rate / living cell ratio; type: cell-based; conditions: MDAPanc-28, single agent, MTT
Protocol: The present inventors examined the concomitant effect of FUT and TNF-α on apoptosis in cancer cells. After treatment with TNF-α for 24 hours, the human pancreas cancer cell line MDAPanc-28 was further cultured for 24 hours with various concentrations of FUT being added. Cells prepared were then subjected to an MTT assay according to the method generally known to calculate the cell survival rates. Also, DNA was extracted to perform a DNA fragmentation assay.
More specifically, with regard to the MTT assay, each well was seeded with 2000 cells per 100 μl of culture medium in a 96-well microtiterplate, followed by the above mentioned treatment. After plate centrifugation, each well received 5 mg/ml of MTT (Sigma) PBS solution instead of culture medium and was incubated for 4 hours at 37° C. After removing the supernatant, 100 μl of DMSO were added to dissolve the cells. The absorbance of the samples was measured at 570 nm by using a microplate reader. 8 wells were subjected to the same condition in this experiment. Two independent experiments were performed, and the average was calculated.
However, the agents are of different types with different mechanisms of action. Therefore, the present inventors examined the effect of each agent on the living cell ratio in the human pancreas cancer cell line MDAPanc-28 singularly. After being treated with each agent for 24 hours and 48 hours, the human pancreas cancer cell line MDAPanc-28 was subjected to a MTT assay. The MTT assay was performed by the method described in Example 9.

NF-κB = test: Gel shift assay of gemcitabine-induced NF-κB activation; type: cell-based, human; conditions: MDAPanc-28, pretreatment 3 hours then gemcitabine 3 hours
Protocol: At the same time, the present inventors also made a comparison with the other NF-κB inhibitors PS1145 and PS341. […] Subsequently, a gel shift assay was performed to examine the effect on NF-κB activation.

Murine fiber cells = test: Effect on survival rate of normal cells; type: cell-based; conditions: concentrations under which apoptosis was induced in cells
Source text: Therefore, the present inventors next examined the effect of FUT treatment on normal cells. Murine fiber cells were used as normal cells.

[5] = test system: human pancreas cancer cell line MDAPanc-28; test: DNA fragmentation assay (apoptosis); type: cell-based; conditions: MDAPanc-28, TNF-α 5 ng/ml 24 hours, then with or without FUT 24 hours
Protocol: After adding 1000 U/ml of protease K, the sample was further incubated for 5 hours at 50° C. After extracting DNA with phenol/chloroform/isoamyl alcohol, isopropanol and ammonium acetate were added to the collected water-soluble fractions in order to collect precipitates. The precipitates were then rinsed with 70% ethanol and dissolved in Tris-EDTA buffer. Electrophoresis was performed on a 2% agarose gel and DNA bands were confirmed by using ethidium bromide. The present inventors examined the concomitant effect of FUT and TNF-α on apoptosis in cancer cells. After treatment with TNF-α for 24 hours, the human pancreas cancer cell line […]-28 was further cultured for 24 hours with various concentrations of FUT being added. Cells prepared were then subjected to an MTT assay according to the method generally known to calculate the cell survival rates. Also, DNA was extracted to perform a DNA fragmentation assay. More specifically, with regard to the MTT assay, each well was seeded with 2000 cells per 100 μl of culture medium in a 96-well microtiterplate, followed by the above mentioned treatment. […] The absorbance of the samples was measured at 570 nm by using a microplate reader. […] Two independent experiments were performed, and the average was calculated. […]

Nc1ccn([C@@H]2O[C@H](CO)[C@@H](O)C2(F)F)c(=O)n1 [gemcitabine]
apoptosis induction, single agent ([1]; MDAPanc-28, gemcitabine alone for 48 hours): induced apoptosis
Extirpated tumor weight, level of the control [2]: approximately 50%
Tumor volume, level of the control [2]: approximately 50%
body weight of mice after administration [3]: showed weight reduction

O=C(Nc1cc(Cl)cc2c1[nH]c1cnccc12)c1cccnc1 [PS1145]
inhibitory effect on proliferation, 24-hour treatment [4]: did not show any significant inhibitory effect
inhibitory effect on proliferation, 48-hour treatment [4]: concentration-dependent inhibitory effect on proliferation
effect on gemcitabine-induced activation of NF-κB (NF-κB): showed a similar trend
apoptosis induction in combination with gemcitabine [1]: further enhanced the effect on apoptosis induction
survival rate of normal cells (Murine fiber cells): significantly decreased the survival rate of normal cells

TNF-α
DNA fragmentation [5]: showed no DNA fragmentation

CC(C)C[C@H](NC(=O)[C@H](Cc1ccccc1)NC(=O)c1cnccn1)B(O)O [PS341]
inhibitory effect on proliferation, 24-hour treatment [4]: no significant inhibitory effect on proliferation
inhibitory effect on proliferation, 48-hour treatment [4]: no significant inhibitory effect on proliferation
effect on gemcitabine-induced activation of NF-κB (NF-κB): showed a similar trend
apoptosis induction in combination with gemcitabine [1]: further enhanced the effect on apoptosis induction
survival rate of normal cells (Murine fiber cells): significantly decreased the survival rate of normal cells
